Source: US10766914B2, “DNA alkylating agents” (OBI PHARMA, INC., priority 2015, dated 2020)

Key:
A549 NSCLC xenograft = assay: Example 4-D antitumor efficacy, ectopic A549 NSCLC xenograft model; assay type: in vivo, female nude mice (nu/nu)
Description: (§1) Specific pathogen-free homozygous female nude mice (nu/nu, Charles River Laboratories) were used. Mice were given food and water ad libitum and housed in microisolator cages. Four to six week old animals were identified by microchips (Locus Technology, Manchester, Md., USA) at the time of the experiments. All animal studies were approved by the Institutional Animal Care and Use Committee at Threshold Pharmaceuticals, Inc.
(§2) All cell lines were from the American Type Culture Collection (ATCC, Rockville, Md., USA).
(§3) Cells were mixed with Matrigel (50% with exception for 30% in the H460) and 0.2 ml per mouse were subcutaneously implanted to the flank area of the animals. When tumor size reached 100-150 250 mm3, mice were randomized into experimental or vehicle groups with 10 mice/group and treatment was started (Day 1). The tested compounds were formulated in 5% DMSO in D5W. The regimens employed in the examples include IP, QD×5/wk (5 days on, 2 days off) as one cycle, for a total of 2 cycles; IP, once; IP, weekly for total 3 weeks; and IV, weekly for 3 weeks. Tumor growth and body weight were measured twice a week. Tumor volume was calculated as (length×width2)/2. Drug efficacy was assessed as Tumor Growth Inhibition (TGI) and Tumor Growth Delay (TGD). TGI was defined as (1−ΔT/ΔC)×100, where ΔT/ΔC presented the ratio of the change in mean (or median, if variation within the group was relatively large) tumor volume of the treated group and of the control group. TGD was calculated as the extra days for the treated tumor to reach 500 mm3 or 1000 mm3 as compared to the control group. Animals were culled when individual tumor size reached over 2000 mm3 or mean tumor volume exceeded 1000 mm3 in the group. Data are expressed as the mean±SEM. One-way analysis of variance with Dunnett post comparison test (GraphPad Prism 4) or two-tailed student's t-test were used for analysis. A P level <0.05 was considered statistically significant.
(§4) The compounds were tested in another A549 model. The compounds were dosed as follows. Daily IP dosing: 5 doses then 2 days off then 5 more doses starting at 100 mm^3 tumors on day 1 (10 animals per group average tumor volume). The antitumor effects and the safety of administration are graphically illustrated below.

H460 cells = assay: Proliferation assay in H460 cells (2 hr exposure, AlamarBlue); assay type: cell-based, human; conditions: Homo sapiens, NCI-H460, 2 hrs exposure, wash, 70 hrs growth, read-out: IC 50 in proliferation assay in H460 cells
Method: In vitro proliferation data on the H460 […] human tumor cell line is reported above in the compound table.
Specifically, exponentially growing cells were seeded at a density of 4×10^3 cells per well in a 96 well plate and incubated at 37° C. in 5% CO2, 95% air and 100% relative humidity for 24 hours prior to addition of test compounds. Compounds were solubilized in 100% DMSO at 200 times the desired final test concentration. At the time of drug addition, compounds were further diluted to 4 times the desired final concentration with complete medium. Aliquots of 50 μl of compound at specified concentrations were added to microtiter wells already containing 150 μl of medium, resulting in the final drug concentration reported. After drug addition, the plates were incubated for an additional 2 hours at 37° C., 5% CO2, 95% air, and 100% relative humidity, then the drug was washed off and fresh medium was added and the plates were incubated for addition 70 hrs at 37° C., 5% CO2, 95% air and 100% relative humidity. At the end of this incubation, the viable cells were quantified using the AlamarBlue assay. The drug concentration resulting in growth inhibition of 50% (IC50) was calculated using Prism software (Irvine, Calif.), and the results were listed in the table.

[1] = Example 4-D body weight change and lethal toxicity, A549 xenograft study; assay type: in vivo, female nude mice (nu/nu); conditions: for Lethal Tox: 10 animals per group
Method: as §3, §4

AKR1C3 = molecular target: T1, AKR1C3 (Homo sapiens, UniProt P42330); assay: Activation by the aldoketo reductase AKR1C3 (% remaining, LC/MS/MS); assay type: biochemical; conditions: for % Remaining: 5 μM, 25 μg/mL AKR1C3, 2 mM NADPH, 37° C.
T1 sequence (P42330 1-323): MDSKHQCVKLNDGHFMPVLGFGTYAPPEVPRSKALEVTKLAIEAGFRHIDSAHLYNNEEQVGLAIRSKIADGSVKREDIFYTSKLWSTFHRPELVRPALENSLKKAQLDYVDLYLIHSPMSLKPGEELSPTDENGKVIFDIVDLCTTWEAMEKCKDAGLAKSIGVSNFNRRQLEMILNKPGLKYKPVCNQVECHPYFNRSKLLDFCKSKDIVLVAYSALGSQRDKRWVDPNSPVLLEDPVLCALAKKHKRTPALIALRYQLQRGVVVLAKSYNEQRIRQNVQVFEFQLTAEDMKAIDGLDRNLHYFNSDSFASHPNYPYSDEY
Method: Recombinant human AKR1C3 was diluted to 25 μg/mL in phosphate buffered saline (PBS), pH 7.4 (37° C.), containing 2 mM NADPH. TH2870 or progesterone (positive control) in 30% methanol/70% water was added to the reaction mixture at a final concentration of 5 μM and incubated at 37° C. for 120 minutes. At various times up to 120 min, 50 μL of the reaction mixture was taken and 200 μL acetonitrile containing propranolol as internal standard was added, vortex-mixed and centrifuged for 10 min. The resulting supernatant (5 μL) was injected into a LC/MS/MS for quantitation of % remaining TH2870 and progesterone. The compounds were tested in duplicate.

[2] = Example 4-B body weight change, A549 xenograft study; assay type: in vivo, female nude mice (nu/nu)
Method: as §3
Antitumor effects of compounds provided herein were determined on A 549 non-small cell lung xenograft model in comparison with a chemotherapy agent, thiotepa. The dosing was as follows. Daily IP dosing: 5 doses then 2 days off then 5 more doses starting at 110 mm^3 tumors on day 1 (10 animals per group average tumor volume). The antitumor effects and the safety of administration are graphically illustrated below.

[3] = tested on: A375 melanoma human tumor xenograft; assay: Example 4-C antitumor efficacy, ectopic A375 melanoma xenograft model; assay type: in vivo, female nude mice (nu/nu); conditions: qd × 5 × 2, ip
Description: as §1, §2, §3
his study employed an A375 melanoma human tumor xenograft model and various compounds provided herein were compared to thiotepa and the approved anti melanoma drug, nab-Paclitaxel.

[4] = tested on: A 549 non-small cell lung xenograft; assay: Example 4-B antitumor efficacy, ectopic A549 NSCLC xenograft model; assay type: in vivo, female nude mice (nu/nu)
Description: as §1, §2, §3
The dosing was as follows. Daily IP dosing: 5 doses then 2 days off then 5 more doses starting at 110 mm^3 tumors on day 1 (10 animals per group average tumor volume).
Doses were selected by first doing a toxicity test in CD1 mice as described above. The compounds were tested against Thio-tepa.

[5] = Example 4-C body weight change, A375 xenograft study; assay type: in vivo, female nude mice (nu/nu); conditions: 2.5 mpk, qd × 5 × 2, ip
Method: as §3
his study employed an A375 melanoma human tumor xenograft model and various compounds provided herein were compared to thiotepa and the approved anti melanoma drug, nab-Paclitaxel. The antitumor effects and the safety of administration are graphically illustrated below.

[6] = 1.25 mg/kg ip QD × 5/wk × 2 wks

CS(=O)(=O)c1ccc(Oc2cc(COP(=O)(N3CC3)N3CC3)ccc2[N+](=O)[O-])cc1 [Compound 2911]
TGD 500 (A549 NSCLC xenograft; 10 mg/kg IP QD × 5/wk × 2 wks): 63 days | TGI (A549 NSCLC xenograft; 10 mg/kg IP QD × 5/wk × 2 wks): 88.7% | IC50 (H460 cells): 8 nM | Max. BW loss % ([1]; 10 mg/kg IP QD × 5/wk × 2 wks): 11.1% | Lethal Tox ([1]; 10 mg/kg IP QD × 5/wk × 2 wks): 0

CC(OP(=O)(N1CC1)N1CC1)c1ccc([N+](=O)[O-])c(Oc2ccc3ncccc3c2)c1 (stereo not shown) [Compound 2952]
TGD 500 (A549 NSCLC xenograft; 20 mg/kg IP QD × 5/wk × 2 wks): 70 days | TGI (A549 NSCLC xenograft; 20 mg/kg IP QD × 5/wk × 2 wks): 91.8% | IC50 (H460 cells): 3 nM | Max. BW loss % ([1]; 20 mg/kg IP QD × 5/wk × 2 wks): 1.2% | Lethal Tox ([1]; 20 mg/kg IP QD × 5/wk × 2 wks): 1

CC(OP(=O)(N1CC1)N1CC1)c1ccc([N+](=O)[O-])c(Oc2ccc3ccccc3c2)c1 (stereo not shown) [Compound 2955]
TGD 500 (A549 NSCLC xenograft; 40 mg/kg IP QD × 5/wk × 2 wks): 47 days | TGI (A549 NSCLC xenograft; 40 mg/kg IP QD × 5/wk × 2 wks): 78.9% | IC50 (H460 cells): 6 nM | Max. BW loss % ([1]; 40 mg/kg IP QD × 5/wk × 2 wks): 0.6% | Lethal Tox ([1]; 40 mg/kg IP QD × 5/wk × 2 wks): 1

O=[N+]([O-])c1ccc(COP(=O)(N2CC2)N2CC2)cc1Oc1ccc(-c2ccccc2)cc1 [Compound 2958]
TGD 500 (A549 NSCLC xenograft; 5 mg/kg IP QD × 5/wk × 2 wks): 44 days | TGI (A549 NSCLC xenograft; 5 mg/kg IP QD × 5/wk × 2 wks): 77.9% | IC50 (H460 cells): 2 nM | Max. BW loss % ([1]; 5 mg/kg IP QD × 5/wk × 2 wks): 2.1% | Lethal Tox ([1]; 5 mg/kg IP QD × 5/wk × 2 wks): 0

CC(=O)[C@H]1CC[C@H]2[C@@H]3CCC4=CC(=O)CC[C@]4(C)[C@H]3CC[C@]12C [Progesterone, progesterone, reference compound]
% Remaining (AKR1C3; 0 min): 100% | % Remaining (AKR1C3; 15 min): 70.8% | % Remaining (AKR1C3; 30 min): 49.2% | % Remaining (AKR1C3; 60 min): 20.1% | % Remaining (AKR1C3; 90 min): 10.6% | % Remaining (AKR1C3; 120 min): 6.40% | disappearance in the presence of AKR1C3 (AKR1C3; in words): reduced slowly

S=P(N1CC1)(N1CC1)N1CC1 [Thio-TEPA, thiotepa, reference compound]
Max. BW loss % [2, 6]: 0.0% | Max. BW loss % ([2]; 2.5 mg/kg ip QD × 5/wk × 2 wks): 0.4% | TGD 500 ([3]; 2.5 mpk): 3 days | TGD 1000 ([3]; 2.5 mpk): 2 days | inhibition in vivo at 2.5 mg/kg ([3]; Mus musculus, A-375, 2.5 mpk, read-out: TGI): 16.6% | TGD 500 [4, 6]: 17 days | TGI [4, 6]: 56.1% | TGD 500 ([4]; 2.5 mg/kg ip QD × 5/wk × 2 wks): 26 days | TGI ([4]; 2.5 mg/kg ip QD × 5/wk × 2 wks): 68.3% | Max. BW loss % [5]: 0%
